This note sets out measurements from US20110144079A1, “ANTIMICROBIAL SYSTEM” (priority 2008, published 2011).

Holding throughout (test): Biofilm assay (Calgary Biofilm Device), MBEC
One test relates to MRSA. Format: cell-based, methicillin-resistant S. aureus. The conditions noted are these: for MBEC: MRSA 24 h biofilm, 24 h challenge; for percent weight to volume of ionic liquid that corresponds to the MBEC value: MRSA biofilm. The procedure: Biofilms of each test organism were grown in the Calgary Biofilm Device (commercially available as the MBEC Assay™ for Physiology & Genetics, Innovotech Inc., Edmonton, Alberta, Canada). The device, a micro-titre plated based assay, consists of two parts; a microtitre plate containing the inoculated test medium and a polystyrene lid with 96 identical pegs on which the microbial biofilm forms under gyrorotary incubation. The biofilm assay was conducted according to the MBEC™ assay protocol as supplied by the manufacturer, with slight modifications. Inocula of each test organism were prepared in MHB as described above and adjusted to provide a final inoculum density of ˜10^7 CFU ml^−1 (as confirmed by viable count). 150 μl of the inoculated media was transferred to each well of the 96-well microtitre plate and the assay plate lid, bearing 96 pegs was placed into the microtitre plate. The MBEC assay plates were placed in a gyrorotary incubator (37° C., 95% relative humidity) for 24 h to permit growth and comparison of 24 h biofilms of each test strain. Positive and negative growth controls were included in each plate (6 replicates). Initial and 24 h planktonic viable counts were measured, as were 24 h biofilm counts, expressed as CFU peg^−1, according to manufacturers instructions. After 24 h, the peg lid of the MBEC assay plate was gently rinsed three times. After rinsing, the peg lid of the MBEC assay was transferred to a ‘challenge’ plate. Serial dilutions of each imidazolium salt were prepared in 200 μl of MHB containing various concentrations of IL in each well. Positive growth control and sterility control were included in each assay plate. […] Biofilms were dislodged into recovery media by sonication for 5 minutes and the peg lid discarded. The recovery plate is incubated overnight and visually checked after 24 h for turbidity. In addition, optical density measurements for each plate were recorded at 550 nm. Clear wells were taken as evidence of biofilm eradication and the MBEC value was assigned as the lowest concentration at which no growth was observed after 24 h incubation. Plates were incubated for a further 24 h to confirm biofilm eradication concentrations.

In a further test the test system is E-MRSA 15. The class given is cell-based. The conditions noted are these: E-MRSA 15 24 h biofilm, 24 h challenge. A digest of the protocol: (§1)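 Biofilms grown 24 h on Calgary Biofilm Device pegs from ~10^7 CFU ml^−1 inocula in MHB, gyrorotary, 37° C, 95% humidity. Rinsed pegs challenged with serial dilutions of imidazolium salts in MHB, then sonicated 5 min into recovery medium. MBEC = lowest concentration giving no growth (turbidity, OD 550 nm) after 24 h.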

The test system of test [1] is S. epidermidis ATCC 35984. The class given is cell-based. To be noted: for MBEC: S. epidermidis ATCC 35984 24 h biofilm, 24 h challenge; for percent weight to volume of ionic liquid that corresponds to the MBEC value: S. epidermidis ATCC 35984 biofilm. In outline: as §1
The test system of a further test is P. aeruginosa PA01. Format: cell-based. To be noted: for MBEC: P. aeruginosa PA01 24 h biofilm, 24 h challenge; for percent weight to volume of ionic liquid that corresponds to the MBEC value: P. aeruginosa PA01 biofilm. In outline:
as §1

The next test relates to B. cenocepacia J2315. The class given is cell-based. The conditions noted are these: B. cenocepacia J2315 24 h biofilm, 24 h challenge. A digest of the protocol: as §1
A further test has as its system K. aerogenes NCTC 7427. Format: cell-based. The conditions noted are these: K. aerogenes NCTC 7427 24 h biofilm, 24 h challenge. A digest of the protocol: as §1
The subject of a further test is C. tropicalis NCTC 7393. Format: cell-based. The conditions noted are these: C. tropicalis NCTC 7393 24 h biofilm, 24 h challenge. In outline: as §1
The test system of the next test is E. coli PIII. The class given is cell-based. To be noted: for MBEC: E. coli PIII 24 h biofilm, 24 h challenge; for percent weight to volume of ionic liquid that corresponds to the MBEC value: E. coli PIII biofilm. A digest of the protocol:
as §1

For a further test, the system named is P. mirabilis NCTC 12442. Format: cell-based. To be noted: P. mirabilis NCTC 12442 24 h biofilm, 24 h challenge. In outline:
as §1

A further test has as its system S. aureus ATCC 29213. Format: cell-based. To be noted: S. aureus ATCC 29213 24 h biofilm, 24 h challenge. A digest of the protocol:
as §1

For the molecule `CCCCCCCCCCCCCCn1cc[n+](C)c1.[Cl-]` [C14MIMCl, 1-tetradecyl-3-methylimidazolium chloride], the MBEC is 124 µM with MRSA; 248 µM in the test on E-MRSA 15; 124 µM in test [1]; 496 µM in the test on P. aeruginosa PA01; 496 µM in the test with B. cenocepacia J2315; 248 µM in the test on K. aerogenes NCTC 7427. For the same molecule, the MBEC is 248 µM in the test on C. tropicalis NCTC 7393, 124 µM with E. coli PIII, 1984 µM in the test on P. mirabilis NCTC 12442 and 124 µM with S. aureus ATCC 29213. Moreover, the “percent weight to volume of ionic liquid that corresponds to the MBEC value” (shortened to “percent weight to volume”) in the test on MRSA is given as “(0.004 % w/v”; in test [1], “(0.004 % w/v”; with P. aeruginosa PA01 it was “(0.016 % w/v”; with E. coli PIII it was “(0.004 % w/v”.
Regarding `CCCCCCCCCCn1cc[n+](C)c1.[Cl-]` [C10MIMCl, 1-decyl-3-methylimidazolium chloride], the MBEC came to 4829 µM in the test with MRSA; 1207 µM in the test on E-MRSA 15; 4829 µM in test [1]; 2415 µM in the test on P. aeruginosa PA01; 19318 µM with B. cenocepacia J2315; 19318 µM in the test on K. aerogenes NCTC 7427. The MBEC in the test on C. tropicalis NCTC 7393 was 19318 µM; with E. coli PIII, 9659 µM; with P. mirabilis NCTC 12442 it was 9659 µM; with S. aureus ATCC 29213, 2415 µM. Moreover, the “percent weight to volume” value with MRSA is “(0.125) % w/v”; in test [1], “(0.125) % w/v”; in the test with P. aeruginosa PA01, “(0.063) % w/v”; with E. coli PIII, “(0.25) % w/v”.
On to `CCCCCCCCCCCCn1cc[n+](C)c1.[Cl-]` [C12MIMCl, 1-dodecyl-3-methylimidazolium chloride], for which the MBEC with MRSA worked out at 545 µM; in the test on E-MRSA 15, 272 µM; in test [1], 272 µM; in the test on P. aeruginosa PA01 it was 1089 µM; in the test on B. cenocepacia J2315 it was 2179 µM; with K. aerogenes NCTC 7427, 2179 µM. In addition, the MBEC was determined as 8714 µM with C. tropicalis NCTC 7393, 1089 µM with E. coli PIII, 4357 µM with P. mirabilis NCTC 12442 and 272 µM in the test with S. aureus ATCC 29213. Moreover, the “percent weight to volume” value was “(0.016) % w/v” with MRSA, “(0.008) % w/v” in [1], “(0.031) % w/v” in the test on P. aeruginosa PA01 and “(0.031) % w/v” in the test on E. coli PIII.
